Results taken from ChEMBL document CHEMBL1147499, “Chain-branched 1,3-dibenzylthioureas as vanilloid receptor 1 antagonists” (Bioorg Med Chem Lett, 2004).

What was measured:
Rattus norvegicus [1] = organism: Rattus norvegicus; test: Effective concentration of compound to induce 45 [Ca2+] influx in neonatal rat cultured spinal sensory neurons; type: functional
Rattus norvegicus [2] = organism: Rattus norvegicus; test: Inhibitory concentration of compound against 45 [Ca2+] influx in neonatal rat cultured spinal sensory neurons; type: functional

| SMILES | EC50 (Rattus norvegicus [1]) [µM] | IC50 (Rattus norvegicus [2]) [µM] |
| --- | --- | --- |
| CC(=O)Nc1ccc([C@@H](C)/N=C(\S)NCc2ccc(C(C)(C)C)cc2)cc1 | > 100 | 3.6 |
| CC(C)(C)c1ccc(C/N=C(\S)NC(c2ccccc2)c2ccc(NS(C)(=O)=O)cc2)cc1 (centres undefined) | > 100 | 16.7 |
| C[C@@H](/N=C(\S)NCc1ccc(C(C)(C)C)cc1)c1ccc(N)cc1 | > 100 | 3.3 |
| C[C@H](/N=C(\S)NCc1ccc(C(C)(C)C)cc1)c1ccc(NS(C)(=O)=O)cc1 | > 100 | 1.47 |
| C[C@@H](NC(=S)NCc1ccc(C(C)(C)C)cc1)c1ccc(NS(C)(=O)=O)cc1 | > 100 | 0.05 |
| C[C@H](/N=C(\S)NCc1ccc(C(C)(C)C)cc1)c1ccc([N+](=O)[O-])cc1 | > 100 | 14.7 |
| C[C@@H](/N=C(\S)NCc1ccc(C(C)(C)C)cc1)c1ccc(C(C)(C)C)cc1 | > 100 | 3.49 |
| Cc1ccc(C(C)/N=C(\S)NCc2ccc(C(C)(C)C)cc2)cc1 (centres undefined) | > 100 | 0.4 |
| CCC(/N=C(\S)NCc1ccc(C(C)(C)C)cc1)c1ccc(NS(C)(=O)=O)cc1 (centres undefined) | > 100 | 0.36 |
| Oc1cc2c(cc1O)CN(C(=S)NCCc1ccc(Cl)cc1)CCC2 [CAPSAZEPINE] | > 100 | – |
| CC(C)C(/N=C(\S)NCc1ccc(C(C)(C)C)cc1)c1ccc(NS(C)(=O)=O)cc1 (centres undefined) | > 100 | 3.24 |
| CC(C)(C)c1ccc(CNC(=S)NCc2ccc(NS(C)(=O)=O)cc2)cc1 | > 100 | – |
| C[C@@H](/N=C(\S)NCc1ccc(C(C)(C)C)cc1)c1ccc([N+](=O)[O-])cc1 | > 100 | 0.58 |
| CC[C@@H](/N=C(\S)NCc1ccc(C(C)(C)C)cc1)c1ccc(NS(C)(=O)=O)cc1 | > 100 | 0.05 |
| C[C@@H](/N=C(\S)NCc1ccc(C(C)(C)C)cc1)c1ccccc1 | > 100 | 4.96 |
| CC(/N=C(\S)NCc1ccc(C(C)(C)C)cc1)c1ccc(NS(C)(=O)=O)cc1 (centres undefined) | > 100 | 0.15 |
| CCCC(/N=C(\S)NCc1ccc(C(C)(C)C)cc1)c1ccc(NS(C)(=O)=O)cc1 (centres undefined) | > 100 | 1.49 |
| C[C@H](/N=C(\S)NCc1ccc(C(C)(C)C)cc1)c1ccccc1 | > 100 | 25.5 |
